What was measured:
HBV core protein = HBV core protein (UniProt P03146); assay type: biochemical; conditions: read-out: Assembly Activity (IC50); BODIPY-FL labelled core protein, assembly started with NaCl, read after 6 min
Outline: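 Fluorescence-quenching assembly assay using E. coli-expressed core protein 1–149 plus Cys150, labelled with BODIPY-FL maleimide, at 1.0–2.0 μM in 50 mM HEPES pH 7.5, 0.5% DMSO. Assembly started with NaCl to […]; fluorescence (ex 477/em 525 nm) read after 6 min. EC50 by non-linear regression, 8-point 0.5-log dilutions.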

HBV = assay: Determination of HBV DNA from the supernatants of HepAD38 cells (anti-HBV activity); assay type: cell-based, hepatitis B virus; conditions: Hepatitis B virus, 144 h; HBV DNA in HepAD38 supernatant at day 6; read-out: Cell Activity (EC50)
Outline: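 HepAD38 cells (60,000/well) were treated with half-log compound dilutions in tetracycline-free medium to induce HBV production. On day 6, HBV DNA was purified from filtered supernatant and quantified by real-time PCR against plasmid standards. EC50 values came from non-linear regression of relative copy numbers, typically from three experiments in triplicate.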

Sequence of HBV core protein (P03146 whole entry, looked up): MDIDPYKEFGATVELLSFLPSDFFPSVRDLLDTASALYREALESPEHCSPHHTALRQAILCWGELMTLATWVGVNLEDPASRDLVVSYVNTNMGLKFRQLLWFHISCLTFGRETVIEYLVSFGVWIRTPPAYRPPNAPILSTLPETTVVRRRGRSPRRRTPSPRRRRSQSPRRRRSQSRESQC

Row | Compound | IC50 (HBV core protein) | EC50 (HBV)
1 | CC(F)(F)c1cc(F)cc2[nH]c(C(=O)N3CCc4nc(NCC5CCOC5)sc4C3)cc12 (stereo not shown) [Example 327, 5-[4-(1,1-difluoroethyl)-6-fluoro-1H-indole-2-carbonyl]-N-[(oxolan-3-yl)methyl]-4H,5H,6H,7H-[1,3]thiazolo[5,4-c]pyridin-2-amine] | < 5 µM | < 1 µM
2 | CCc1cc(F)cc2[nH]c(C(=O)N3CCc4nc(NC[C@@H]5CCOC5)sc4C3)cc12 [Example 328, 5-(4-ethyl-6-fluoro-1H-indole-2-carbonyl)-N-{[(3S)-oxolan-3-yl]methyl}-4H,5H,6H,7H-[1,3]thiazolo[5,4-c]pyridin-2-amine] | < 5 µM | < 1 µM
3 | CCc1cc(F)cc2[nH]c(C(=O)N3CCc4nc(NC[C@H]5CCOC5)sc4C3)cc12 [Example 329, 5-(4-ethyl-6-fluoro-1H-indole-2-carbonyl)-N-{[(3R)-oxolan-3-yl]methyl}-4H,5H,6H,7H-[1,3]thiazolo[5,4-c]pyridin-2-amine] | < 5 µM | < 1 µM
4 | COCC1(C(=O)Nc2nc3c(s2)CN(C(=O)c2cc4ccccc4[nH]2)CC3)CC1 [Example 330, N-[5-(1H-indole-2-carbonyl)-4H,5H,6H,7H-[1,3]thiazolo[5,4-c]pyridin-2-yl]-1-(methoxymethyl)cyclopropane-1-carboxamide] | 5 to 10 µM | < 1 µM
5 | O=C(c1cc2ccc(Cl)cc2[nH]1)N1CCc2nc(NCC3(O)CCC3)sc2C1 [Example 331, 1-({[5-(6-chloro-1H-indole-2-carbonyl)-4H,5H,6H,7H-[1,3]thiazolo[5,4-c]pyridin-2-yl]amino}methyl)cyclobutan-1-ol] | 5 to 10 µM | < 1 µM
6 | CCc1cccc2[nH]c(C(=O)N3CCc4nc(NC(=O)C5(C)CC5)sc4C3)cc12 [Example 333, N-[5-(4-ethyl-1H-indole-2-carbonyl)-4H,5H,6H,7H-[1,3]thiazolo[5,4-c]pyridin-2-yl]-1-methylcyclopropane-1-carboxamide] | < 5 µM | < 1 µM
7 | CCc1cccc2[nH]c(C(=O)N3CCc4nc(NC(=O)C5CCOCC5)sc4C3)cc12 [Example 334, N-[5-(4-ethyl-1H-indole-2-carbonyl)-4H,5H,6H,7H-[1,3]thiazolo[5,4-c]pyridin-2-yl]oxane-4-carboxamide] | < 5 µM | < 1 µM
8 | CCc1cccc2[nH]c(C(=O)N3CCc4nc(N[C@H]5CC[C@@H](O)CC5)sc4C3)cc12 [Example 335, (1s,4s)-4-{[5-(4-ethyl-1H-indole-2-carbonyl)-4H,5H,6H,7H-[1,3]thiazolo[5,4-c]pyridin-2-yl]amino}cyclohexan-1-ol] | < 5 µM | < 1 µM
9 | N#CC1(C(=O)Nc2nc3c(s2)CN(C(=O)c2cc4ccccc4[nH]2)CC3)CC1 [Example 336, 1-cyano-N-[5-(1H-indole-2-carbonyl)-4H,5H,6H,7H-[1,3]thiazolo[5,4-c]pyridin-2-yl]cyclopropane-1-carboxamide] | 5 to 10 µM | < 1 µM
10 | CCc1cccc2[nH]c(C(=O)N3CCc4nc(NCC5(O)CCC5)sc4C3)cc12 [Example 338, 1-({[5-(4-ethyl-1H-indole-2-carbonyl)-4H,5H,6H,7H-[1,3]thiazolo[5,4-c]pyridin-2-yl]amino}methyl)cyclobutan-1-ol] | < 5 µM | < 1 µM
11 | COCC1(CNc2nc3c(s2)CN(C(=O)c2cc4ccccc4[nH]2)CC3)CC1 [Example 340, 5-(1H-indole-2-carbonyl)-N-{[1-(methoxymethyl)cyclopropyl]methyl}-4H,5H,6H,7H-[1,3]thiazolo[5,4-c]pyridin-2-amine] | < 5 µM | < 1 µM
12 | Nc1nc2c(s1)CN(C(=O)c1cc3c(C(F)F)ccc(F)c3[nH]1)CC2 [Example 341, 5-[4-(difluoromethyl)-7-fluoro-1H-indole-2-carbonyl]-4H,5H,6H,7H-[1,3]thiazolo[5,4-c]pyridin-2-amine] | < 5 µM | 1 to 10 µM
13 | O=C(c1cc2c(F)cc(F)cc2[nH]1)N1CCc2nc(N[C@H]3CC[C@@H](O)CC3)sc2C1 [Example 344, (1s,4s)-4-{[5-(4,6-difluoro-1H-indole-2-carbonyl)-4H,5H,6H,7H-[1,3]thiazolo[5,4-c]pyridin-2-yl]amino}cyclohexan-1-ol] | 5 to 10 µM | < 1 µM
14 | O=C(c1cc2c(Cl)c(F)ccc2[nH]1)N1CCc2nc(NCC3(O)CCC3)sc2C1 [Example 362, 1-({[5-(4-chloro-5-fluoro-1H-indole-2-carbonyl)-4H,5H,6H,7H-[1,3]thiazolo[5,4-c]pyridin-2-yl]amino}methyl)cyclobutan-1-ol] | < 5 µM | < 1 µM
15 | CCc1cc(F)cc2[nH]c(C(=O)N3CCc4nc(NCC5(O)CCC5)sc4C3)cc12 [Example 363, 1-({[5-(4-ethyl-6-fluoro-1H-indole-2-carbonyl)-4H,5H,6H,7H-[1,3]thiazolo[5,4-c]pyridin-2-yl]amino}methyl)cyclobutan-1-ol] | < 5 µM | < 1 µM
16 | O=C(c1cc2c(Br)cccc2[nH]1)N1CCc2nc(NCC3(O)CCC3)sc2C1 [Example 364, 1-({[5-(4-bromo-1H-indole-2-carbonyl)-4H,5H,6H,7H-[1,3]thiazolo[5,4-c]pyridin-2-yl]amino}methyl)cyclobutan-1-ol] | < 5 µM | < 1 µM
17 | O=C(c1cc2ccc(Br)cc2[nH]1)N1CCc2nc(NCC3(O)CCC3)sc2C1 [Example 365, 1-({[5-(6-bromo-1H-indole-2-carbonyl)-4H,5H,6H,7H-[1,3]thiazolo[5,4-c]pyridin-2-yl]amino}methyl)cyclobutan-1-ol] | < 5 µM | < 1 µM
18 | CC(O)c1cc(F)cc2[nH]c(C(=O)N3CCc4nc(NCC5(O)CCC5)sc4C3)cc12 (stereo not shown) [Example 366, 1-[({5-[6-fluoro-4-(1-hydroxyethyl)-1H-indole-2-carbonyl]-4H,5H,6H,7H-[1,3]thiazolo[5,4-c]pyridin-2-yl}amino)methyl]cyclobutan-1-ol] | < 100 µM | < 1 µM
19 | O=C(c1cc2c(CO)cccc2[nH]1)N1CCc2nc(NCC3(O)CCC3)sc2C1 [Example 367, 1-[({5-[4-(hydroxymethyl)-1H-indole-2-carbonyl]-4H,5H,6H,7H-[1,3]thiazolo[5,4-c]pyridin-2-yl}amino)methyl]cyclobutan-1-ol] | < 100 µM | < 1 µM
20 | Cc1cccc2[nH]c(C(=O)N3CCc4nc(NCC5(O)CCC5)sc4C3)cc12 [Example 370, 1-({[5-(4-methyl-1H-indole-2-carbonyl)-4H,5H,6H,7H-[1,3]thiazolo[5,4-c]pyridin-2-yl]amino}methyl)cyclobutan-1-ol] | < 5 µM | < 1 µM
21 | CC(F)(F)c1cc(F)cc2[nH]c(C(=O)N3CCc4nc(NCC5(O)CCC5)sc4C3)cc12 [Example 371, 1-[({5-[4-(1,1-difluoroethyl)-6-fluoro-1H-indole-2-carbonyl]-4H,5H,6H,7H-[1,3]thiazolo[5,4-c]pyridin-2-yl}amino)methyl]cyclobutan-1-ol] | < 5 µM | < 1 µM
22 | CC(F)(F)c1cccc2[nH]c(C(=O)N3CCc4nc(NCC5(O)CCC5)sc4C3)cc12 [Example 372, 1-[({5-[4-(1,1-difluoroethyl)-1H-indole-2-carbonyl]-4H,5H,6H,7H-[1,3]thiazolo[5,4-c]pyridin-2-yl}amino)methyl]cyclobutan-1-ol] | < 5 µM | 1 to 10 µM
23 | O=C(c1cc2c(F)c(F)ccc2[nH]1)N1CCc2nc(NCC3(O)CCC3)sc2C1 [Example 375, 1-({[5-(4,5-difluoro-1H-indole-2-carbonyl)-4H,5H,6H,7H-[1,3]thiazolo[5,4-c]pyridin-2-yl]amino}methyl)cyclobutan-1-ol] | < 5 µM | < 1 µM
24 | O=C(c1cc2ccccc2[nH]1)N1CCc2nc(NCC3CCNC3)sc2C1 (stereo not shown) [Example 389, 5-(1H-indole-2-carbonyl)-N—[(pyrrolidin-3-yl)methyl]-4H,5H,6H,7H-[1,3]thiazolo[5,4-c]pyridin-2-amine] | < 5 µM | 1 to 10 µM
25 | O=C(Nc1nc2c(s1)CN(C(=O)c1cc3ccccc3[nH]1)CC2)NS(=O)(=O)C1CC1 [Example 390, 3-(cyclopropanesulfonyl)-1-[5-(1H-indole-2-carbonyl)-4H,5H,6H,7H-[1,3]thiazolo[5,4-c]pyridin-2-yl]urea] | < 5 µM | < 100 µM
26 | CC(=O)N1CCC(CNc2nc3c(s2)CN(C(=O)c2cc4ccccc4[nH]2)CC3)C1 (stereo not shown) [Example 391, 1-[3-({[5-(1H-indole-2-carbonyl)-4H,5H,6H,7H-[1,3]thiazolo[5,4-c]pyridin-2-yl]amino}methyl)pyrrolidin-1-yl]ethan-1-one] | < 5 µM | < 1 µM
27 | CC(C)(C)OC(=O)N1CCC(CNc2nc3c(s2)CN(C(=O)c2cc4ccccc4[nH]2)CC3)C1 (stereo not shown) [Example 392, tert-butyl 3-({[5-(1H-indole-2-carbonyl)-4H,5H,6H,7H-[1,3]thiazolo[5,4-c]pyridin-2-yl]amino}methyl)pyrrolidine-1-carboxylate] | < 5 µM | < 1 µM
28 | CS(=O)(=O)NC(=O)Nc1nc2c(s1)CN(C(=O)c1cc3ccccc3[nH]1)CC2 [Example 393, 1-[5-(1H-indole-2-carbonyl)-4H,5H,6H,7H-[1,3]thiazolo[5,4-c]pyridin-2-yl]-3-methanesulfonylurea] | 5 to 10 µM | 1 to 10 µM
29 | CCc1cc(F)cc2[nH]c(C(=O)N3CCc4nc(N[C@H]5CC[C@@H](O)CC5)sc4C3)cc12 [Example 394, (1s,4s)-4-{[5-(4-ethyl-6-fluoro-1H-indole-2-carbonyl)-4H,5H,6H,7H-[1,3]thiazolo[5,4-c]pyridin-2-yl]amino}cyclohexan-1-ol] | < 5 µM | < 1 µM

— US11267825B2 (AICURIS GMBH & CO. KG, priority 2017, dated 2022)
